Assay results as given in patent US20250325553A1, “METHODS OF TREATING CANCER” (FOGHORN THERAPEUTICS INC., priority 2022, published 2025).
Where two headings read alike, the source gives them in different places.

Tests used:
[1] = Phase 1 dose escalation clinical trial, preliminary pharmacokinetics; assay type: in vivo; conditions: preliminary PK analysis
Procedure: (§1) A Phase 1 dose escalation clinical trial of Compound A is conducted. The trial is primarily intended to determine the maximum tolerated dose (MTD) and/or recommended phase 2 dose of the compound when administered orally to subjects with metastatic uveal melanoma.
(§2) In this ongoing study, Compound A has been administered at dose levels of 2.5 mg once a day (QD), 5 mg QD, 7.5 mg QD, and 10 mg QD to 17 subjects with metastatic uveal melanoma.

[2] = Population PK model of orally administered Compound A patient data; assay type: in vivo, human
Procedure: A population PK model based on orally administered Compound A dosing data in a total of 10 patients with metastatic uveal melanoma (UM) and advanced hematologic malignancies (e.g., acute myeloid leukemia (AML)) was performed.
Nonlinear mixed-effects models were fitted to concentration vs. time data of FHD-286. Various compartmental models with linear elimination (1-, 2- and 3-compartment), absorption models, structures of omega on clearances, volumes and absorption parameters (diagonal and block) were developed to assess the PK of Compound A.
Overall, a two-compartment model with linear elimination, a zero-order oral absorption, and a lag time of absorption adequately characterized the concentration-time profiles of Compound A.
Exploratory analysis of covariate effects was performed with appropriate plots presenting relationships between the ETAs (e.g., values reflecting the difference between and individual's parameter value and that of the population) of PK parameters to identify any remaining covariate trends. […] Therefore a “Multiple Dose Effect” on CL was included in the model to account for this change over time.
No other covariates were included as part of the model.

[3] = system: metastatic uveal melanoma; assay: Phase 1 dose escalation clinical trial, tumor response; assay type: in vivo, human; conditions: 2.5-10 mg QD oral, 17 subjects with metastatic uveal melanoma
Procedure: as §1, §2

[4] = system: subjects with metastatic uveal melanoma; assay: Phase 1 dose escalation clinical trial, dose limiting toxicity; assay type: in vivo; conditions: one subject treated at the 7.5 mg dose; improved with a dose hold
Procedure: as §1, §2

## COC[C@H](NC(=O)c1ccn(S(C)(=O)=O)c1)C(=O)Nc1nc(-c2cccc(N3C[C@@H](C)O[C@@H](C)C3)n2)cs1 [Compound A, N-(1-((4-(6-(2,6-dimethylmorpholino)pyridin-2-yl)thiazol-2-yl)amino)-3-methoxy-1-oxopropan-2-yl)-1-(methylsulfonyl)-1H-pyrrole-3-carboxamide]
[1]; oral 2.5, 5, 7.5, 10 mg QD, subjects with metastatic uveal melanoma
  half-life: long half-life
[1]; oral 2.5-10 mg QD dose levels
  plasma concentrations of the compound: increase with increasing dose
[2]; after multiple doses
  clearance (CL) over time: reduction in clearance
[2]; final PK model parameter
  Vc, Estimate: 54.6 L
[2]; final PK model parameter, lag time of absorption
  Tlag, Estimate: 0.452 h
[2]; final PK model parameter, zero-order oral absorption, two-compartment model, 10 patients (UM, AML)
  Dur, Estimate: 1.77 h
[2]; human, in vivo, oral, final PK model parameter, linear elimination, read-out: CL, Estimate (converted)
  clearance: 67.8 mL/min
[2]; human, in vivo, oral, final PK model parameter, read-out: CLp, Estimate (converted)
  clearance: 510 mL/min
[2]; human, in vivo, oral, final PK model parameter, read-out: Vd, Estimate
  Vd: 165 L
[3]
  tumor response: Stable disease and reductions in tumor burden
[4]
  dose limiting toxicity: Grade 3 keratitis
